Test results: US20010048946A1, “SOLID PHARMACEUTICAL DOSAGE FORMS IN FORM OF A PARTICULATE DISPERSION” (priority 1997, published 2001)

Columns and labels:
[1] = Dissolution testing, USP apparatus II, 900 mL medium, 37° C., 75 rpm; type: physicochemical; settings: 100 mg CI-991
Experimental: (0.1 M) Phosphate solution was prepared by dissolving a calculated amount of Na2HPO4 in USP water. The pH-value of the (0.1 M) phosphate solution was then adjusted to 8.0±0.02 by 85% phosphoric acid to give a pH 8 (0.1 M) phosphate buffer. An appropriate amount of SLS was added and dissolved in the pH 8 (0.1 M) phosphate buffer to give the pH 8 (0.1 M) phosphate buffer containing 0.5% (g/mL) SLS.
(0.05 M) Phosphate solution was prepared by mixing 1:1 ratio of the aqueous solutions of (0.025 M) Na2HPO4 and (0.025 M) K2HPO4. The pH value of the (0.05 M) phosphate solution was then adjusted to 9.0±0.02 by 85% phosphoric acid to give the pH 9 (0.05 M) phosphate buffer.
The dissolution studies were conducted in 900 mL of dissolution medium maintained at 37° C., using USP apparatus II (Distek 2100A dissolution system, North Brunswick, N.J.) at 75 rpm of paddle speed. After dispersing a sample containing 100 mg of CI-991 into the dissolution medium, about 10 mL of solutions were periodically sampled and filtered by Gelman Nylon Acrodisc 0.45 μm filters to give clear filtrates (discard the first 2 mL filtrate). The extent of the drug dissolved in the dissolution medium was determined by UV spectrometry at λ=284 nm. Interference by the excipients was not observed during analysis. Experiments were run in duplicate, and the results were averaged.

[2] = gastrointestinal pH range of 1.0 to 7.5; cited from earlier work
[3] = pH 8 (0.1 M) phosphate buffer containing 0.5% SLS

Cc1c(C)c2c(c(C)c1O)CCC(C)(COc1ccc(CC3SC(=O)NC3=O)cc1)O2 (stereo not shown) [CI-991 Pure Drug, Troglitazone]
Percent of CI-991 Dissolved in Solution at 5 min [1, 3]: 3.9 ± 0.1% | Percent of CI-991 Dissolved in Solution at 10 min [1, 3]: 6.3 ± 0.1% | Percent of CI-991 Dissolved in Solution at 15 min [1, 3]: 8.2 ± 0.1% | Percent of CI-991 Dissolved in Solution at 5 min ([1]; pH 9 (0.05 M) phosphate buffer): 0.5 ± 0.1% | Percent of CI-991 Dissolved in Solution at 10 min ([1]; pH 9 (0.05 M) phosphate buffer): 0.4 ± 0.1% | Percent of CI-991 Dissolved in Solution at 15 min ([1]; pH 9 (0.05 M) phosphate buffer): 1.2 ± 0.2% | water solubility (in words) [2]: practically water-insoluble
